Biological target: SARS-CoV-2 M^pro (Severe acute respiratory syndrome coronavirus 2, UniProt P0DTD1)
Assay: In vitro FRET enzymatic assay (screening at 1 µM and SAR IC50)
Assay type: biochemical
Settings: for inhibition at 1 µM: read-out: M^pro inhibition % (comp. conc. 1 µM)

SMILES | M^pro inhibition % (comp. conc. 1 µM) | inhibition at 1 µM | IC50 (IC50 M^pro) | IC50 (IC50 ± SEM)
N#Cc1cccc(C(=O)N[C@H](CC2CCC2)C(=O)N[C@H](CC(=O)N[C@H](Cc2ccncc2)C(=O)O)Cc2c[nH]c3ccccc23)c1 [MP6] | 17.8% | ~18% | – | –
O=Cc1cccc(C(=O)N[C@H](CC2CCC2)C(=O)N[C@H](CC(=O)N[C@H](Cc2ccncc2)C(=O)O)Cc2c[nH]c3ccccc23)c1 [MP7] | – | 100% | – | –
N#Cc1cc(C(=O)N[C@H](CC2CCC2)C(=O)N[C@H](CC(=O)N[C@H](Cc2ccc(Cl)cc2)C(=O)O)Cc2c[nH]c3ccccc23)ccn1 [MP4] | – | ~30% | – | –
N#Cc1cc(C(=O)N[C@H](CC2CCC2)C(=O)N[C@H](CC(=O)N[C@H](Cc2ccncc2)C(=O)O)Cc2c[nH]c3ccccc23)ccn1 [MP1] | – | 97% | – | –
N#Cc1cc(C(=O)N[C@H](CC2CCC2)C(=O)N[C@H](CC(=O)N[C@H](Cc2ccncc2)C(=O)NCc2cccc(Cl)c2)Cc2c[nH]c3ccccc23)ccn1 [MP15] | – | 66.8% | – | –
CCCC[C@@H](NC(=O)c1ccnc(C#N)c1)C(=O)N[C@H](CC(=O)N[C@H](Cc1ccncc1)C(=O)O)Cc1c[nH]c2ccccc12 [MP9] | – | 86.6% | – | –
N#Cc1cc(C(=O)N[C@H](CC2CCC2)C(=O)N[C@H](CC(=O)N[C@H](Cc2ccncc2)C(=O)NCCc2c[nH]c3ccccc23)Cc2c[nH]c3ccccc23)ccn1 [MP16] | – | 94.7% | 47 nM | 33 ± 3 nM
N#Cc1cc(C(=O)N[C@H](CC2CCC2)C(=O)N[C@H](CC(=O)O)Cc2c[nH]c3ccccc23)ccn1 [MP2] | 2.2% | ~2% | – | –
N#Cc1cc(C(=O)N[C@H](Cc2ccc(Cl)cc2)C(=O)N[C@H](CC(=O)N[C@H](Cc2ccncc2)C(=O)O)Cc2c[nH]c3ccccc23)ccn1 [MP10] | – | 95.7% | – | 71 ± 7 nM
N#Cc1cc(C(=O)N[C@H](CC2CCC2)C(=O)NCCC(=O)N[C@H](Cc2ccncc2)C(=O)O)ccn1 [MP5] | 8.1% | ~8% | – | –
N#Cc1cc(C(=O)N[C@H](CC2CCC2)C(=O)N[C@H](CC(=O)N[C@H](Cc2ccncc2)C(=O)NCc2ccccn2)Cc2c[nH]c3ccccc23)ccn1 [MP14] | – | 98.2% | – | 45 ± 9 nM
N#Cc1cc(C(=O)N[C@H](Cc2ccc(Cl)c(Cl)c2)C(=O)N[C@H](CC(=O)N[C@H](Cc2ccncc2)C(=O)O)Cc2c[nH]c3ccccc23)ccn1 [MP11] | – | 90.7% | – | 69 ± 4 nM
N#Cc1cc(C(=O)N[C@H](CC2CCC2)C(=O)N[C@H](CC(=O)N[C@H](Cc2ccncc2)C(=O)NCCN2CCOCC2)Cc2c[nH]c3ccccc23)ccn1 [MP13] | – | 94.2% | – | 47 ± 6 nM
N#Cc1cc(C(=O)N[C@H](CC2CCC2)C(=O)N[C@H](CC(=O)N[C@H](Cc2ccncc2)C(=O)NCc2ccccc2)Cc2c[nH]c3ccccc23)ccn1 [MP12] | – | 96.5% | – | –
CC(=O)c1cccc(C(=O)N[C@H](CC2CCC2)C(=O)N[C@H](CC(=O)N[C@H](Cc2ccncc2)C(=O)O)Cc2c[nH]c3ccccc23)c1 [MP8] | 18.2% | ~18% | – | –
N#Cc1cc(C(=O)N[C@H](CC2CCC2)C(=O)N[C@H](CC(=O)N[C@H](Cc2ccccc2)C(=O)O)Cc2c[nH]c3ccccc23)ccn1 [MP3] | 30.4% | ~30% | – | –

— publication PMC11459923, “Identification of novel and potent inhibitors of SARS-CoV-2 main protease from DNA-encoded chemical libraries” (Antimicrobial Agents and Chemotherapy, 2024)
